According to patent US9975885B2, “Broad-spectrum non-covalent coronavirus protease inhibitors” (priority 2016, dated 2018):

System: Ten CoV 3CL^pro's (FIPV-, PEDV-, NL63-, HKU1-, OC43-, SARS-, HKU4-, HKU5-, HKU9-, IBV-3CL^pro)
Type: biochemical, coronaviruses (α-, β-, γ-CoV)

| SMILES | inhibition of any 3CL^pro [%] | Gini Coefficient |
| --- | --- | --- |
| CC(C)C(=O)Nc1ccc(N(C(=O)Cn2nnc3ccccc32)C(C(=O)NCc2ccccc2)c2cccc(Cl)c2)cc1 (stereo not drawn) [Compound 11, N-(4-(2-(1H-benzo[d][1,2,3]triazol-1-yl)-N-(2-(benzylamino)-1-(3-chlorophenyl)-2-oxoethyl)acetamido)phenyl)isobutyramide] | ≤ 50 | – |
| CC(C)C(=O)Nc1ccc(N(C(=O)Cn2nnc3ccccc32)C(C(=O)NCc2ccccc2)c2ccc(Cl)cc2)cc1 (stereo not drawn) [Compound 12, N-(4-(2-(1H-benzo[d][1,2,3]triazol-1-yl)-N-(2-(benzylamino)-1-(4-chlorophenyl)-2-oxoethyl)acetamido)phenyl)isobutyramide] | – | 0.37 |
| CC(C)C(=O)Nc1ccc(N(C(=O)Cn2nnc3ccccc32)C(C(=O)NCc2ccccc2)c2ccncc2)cc1 (stereo not drawn) [Compound 16, N-(4-(2-(1H-benzo[d][1,2,3]triazol-1-yl)-N-(2-(benzylamino)-2-oxo-1-(pyridin-4-yl)ethyl)acetamido)phenyl)isobutyramide] | ≤ 50 | 0.52 |
| CC(C)C(=O)Nc1ccc(N(C(=O)Cc2coc3ccccc23)C(C(=O)NCc2ccccc2)c2cccc(F)c2)cc1 (stereo not drawn) [Compound 20, N-(4-(2-(benzofuran-3-yl)-N-(2-(benzylamino)-1-(3-fluorophenyl)-2-oxoethyl)acetamido)phenyl)isobutyramide] | ≤ 50 | 0.39 |
| CC(C)(C)NC(=O)C(c1ccsc1)N(C(=O)Cc1csc2ccccc12)c1ccc(NC(=O)C2CC2)cc1 (stereo not drawn) [Compound 24, N-(4-(2-(benzo[b]thiophen-3-yl)-N-(2-(tert-butylamino)-2-oxo-1-(thiophen-3-yl)ethyl)acetamido)phenyl)cyclopropanecarboxamide] | ≤ 50 | 0.40 |
| CC(C)(C)NC(=O)C(c1ccsc1)N(C(=O)Cc1coc2ccccc12)c1ccc(NC(=O)C2CC2)cc1 (stereo not drawn) [Compound 25, N-(4-(2-(benzofuran-3-yl)-N-(2-(tert-butylamino)-2-oxo-1-(thiophen-3-yl)ethyl)acetamido)phenyl)cyclopropanecarboxamide] | ≤ 50 | 0.39 |
| CC(C)(C)NC(=O)C(c1ccsc1)N(C(=O)Cc1c[nH]c2ccccc12)c1ccc(NC(=O)C2CC2)cc1 (stereo not drawn) [Compound 26, N-(4-(N-(2-(tert-butylamino)-2-oxo-1-(thiophen-3-yl)ethyl)-2-(1H-indol-3-yl)acetamido)phenyl)cyclopropanecarboxamide] | ≤ 50 | 0.46 |
| CC(C)C(=O)Nc1ccc(N(C(=O)Cn2nnc3ccccc32)C(C(=O)NCc2ccccc2)c2ccc(N(C)C)cc2)cc1 (stereo not drawn) [Compound 52, N-(4-(2-(1H-benzo[d][1,2,3]triazol-1-yl)-N-(2-(benzylamino)-1-(4-(dimethylamino)phenyl)-2-oxoethyl)acetamido)phenyl)isobutyramide] | ≤ 50 | 0.42 |
| CC(C)C(=O)Nc1ccc(N(C(=O)C2CCN(C(=O)OC(C)(C)C)CC2)C(C(=O)NCc2ccccc2)c2cccc(F)c2)cc1 (stereo not drawn) [Compound 56, tert-butyl 4-((2-(benzylamino)-1-(3-fluorophenyl)-2-oxoethyl)(4-isobutyramidophenyl)carbamoyl) piperidine-1-carboxylate] | – | 0.34 |
| Cc1cccc2c(CC(=O)N(c3ccc(NC(=O)C(C)C)cc3)C(C(=O)NCc3ccccc3)c3cccc(F)c3)c[nH]c12 (stereo not drawn) [Compound 57, N-(4-(N-(2-(benzylamino)-1-(3-fluorophenyl)-2-oxoethyl)-2-(7-methyl-1H-indol-3-yl)acetamido)phenyl)isobutyramide] | ≤ 50 | 0.38 |
| CC(C)C(=O)Nc1ccc(N(C(=O)CCc2nc3ccccc3[nH]2)C(C(=O)NCc2ccccc2)c2cccc(F)c2)cc1 (stereo not drawn) [Compound 58, 3-(1H-benzo[d]imidazol-2-yl)-N-(2-(benzylamino)-1-(3-fluorophenyl)-2-oxoethyl)-N-(4-isobutyramidophenyl)propanamide] | – | 0.40 |
